Experimental findings from patent publication US20220324835A1 (Nurix Therapeutics, Inc., priority 2018, published 2022) are described below.

Read-outs that look alike come from different tables or passages of the source.

What all share (type): cell-based
Test [1] has as its system primary human total T-cells. Briefly: T-cell activation assessed by cytokine secretion (GM-CSF, IFNγ, TNFα). An outline of the steps: (§1)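 Primary human T-cells (>95% CD3+, negative selection from PBMC) were pre-incubated with inhibitor (e.g. 10, 1.11, 0.123 μM; DMSO <0.1%) for 1 h at 37 °C. They were then stimulated 48 h with plate-bound OKT3 (coated at 10 μg/mL), alone or with 5 μg/mL soluble anti-CD28. Results are fold change over uninhibited, identically stimulated cells.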

Test [2] has as its system primary human total T-cells. Briefly: T-cell activation assessed by CD69 expression. An outline of the steps: as §1
The next test concerns primary human NK cells. Nature of the test: NK cell activation assessed by cytokine secretion (coculture with K562 NucRed target cells). To be noted: for fold induction at 0.625 µM: 0.625 μM compound; for fold induction at 2.5 µM: 2.5 μM compound. In short, it runs like this: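 Read-out is cytokine secretion (IFNγ, TNFα, MIP1β; ELISA or Luminex) as fold over coculture without inhibitor, >2.0-fold taken as positive. Donor NK cells, IL-2 primed (60 ng/mL) overnight, received compound 1 h ahead (e.g. 0.1–10 μM, DMSO <0.1%) and were mixed 6 h with K562 NucRed targets at e.g. 5:1, 1:1, 1:5.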

[3] abbreviates: CD3/CD28 stimulation, read-out: GM-CSF secretion.
Where [4] appears, read: CD3/CD28 stimulation, read-out: IFNγ secretion.
The mark [5] stands for this setting: CD3/CD28 stimulation, read-out: TNFα secretion.
Setting [6] is: CD3 alone stimulation, read-out: GM-CSF secretion.
Setting [7] is: CD3 alone stimulation, read-out: IFNγ secretion.
[8] abbreviates: CD3 alone stimulation, read-out: TNFα secretion.
Setting [9] is: CD3/CD28 stimulation, CD4 T-cells, read-out: % CD69+ (CD4).
Where [10] appears, read: CD3/CD28 stimulation, CD8 T-cells, read-out: % CD69+ (CD8).
Setting [11] is: CD3 alone stimulation, CD4 T-cells, read-out: % CD69+ (CD4).
Setting [12] is: CD3 alone stimulation, CD8 T-cells, read-out: % CD69+ (CD8).
Setting [13] is: K562, NK cells cocultured with K562 NucRed, 1:1 E/T, read-out: IFNγ secretion, fold change over baseline.
[14] abbreviates: K562, NK cells cocultured with K562 NucRed, 1:1 E/T, read-out: TNFα secretion, fold change over baseline.
The mark [15] stands for this setting: K562, NK cells cocultured with K562 NucRed, 1:1 E/T, 10 μM compound, read-out: IFNγ secretion, fold change over baseline.
The mark [16] stands for this setting: K562, NK cells cocultured with K562 NucRed, 1:1 E/T, 10 μM compound, read-out: TNFα secretion, fold change over baseline.
Where [17] appears, read: K562, 1:1 E/T, read-out: IFNγ secretion.
The mark [18] stands for this setting: K562, 1:1 E/T, read-out: MIP1β secretion.
[19] abbreviates: K562, 1:1 E/T, read-out: TNFα secretion.
The mark [20] stands for this setting: K562, 1:1 E/T, 10 μM, read-out: IFNγ secretion.
The mark [21] stands for this setting: K562, 1:1 E/T, 10 μM, read-out: MIP1β secretion.
[22] abbreviates: K562, 1:1 E/T, 10 μM, read-out: TNFα secretion.
[23] abbreviates: K562, 5:1 E/T, read-out: IFNγ secretion.
The mark [24] stands for this setting: K562, 5:1 E/T, read-out: MIP1β secretion.
Where [25] appears, read: K562, 5:1 E/T, read-out: TNFα secretion.
The mark [26] stands for this setting: K562, 5:1 E/T, 10 μM, read-out: IFNγ secretion.
[27] abbreviates: K562, 5:1 E/T, 10 μM, read-out: MIP1β secretion.
The mark [28] stands for this setting: K562, 5:1 E/T, 10 μM, read-out: TNFα secretion.

As for `C[C@H](Sc1nncn1C)c1cccc(NC(=O)c2cc(C(=O)N3CC[C@H](O)C3)ccn2)c1` [Compound 140, 4-[[(3S)-3-hydroxypyrrolidin-1-yl]carbonyl]-N-[3-[(1S)-1-[(4-methyl-4H-1,2,4-triazol-3-yl)sulfanyl]ethyl]phenyl]pyridine-2-carboxamide], the fold induction at 1.11 µM in test [1] (setting [3]) was 2.01 to 4; in test [1] (setting [4]), 2.01 to 3; in test [1] (setting [5]), 2.01 to 4; in test [1] (setting [6]), 2.01 to 4; in test [1] (setting [7]), 3.01 to 4; in test [1] (setting [8]) it was 1.51 to 2. Also, the fold induction at 1.11 µM in test [2] (setting [9]) is 1.4 to 1.6; in test [2] (setting [10]) it was 1.2 to 1.4; in test [2] (setting [11]) it was > 1.6; in test [2] (setting [12]), 1.4 to 1.6. For the same compound, the fold induction at 10 µM in test [1] (setting [3]) was > 4; in test [1] (setting [4]) it was > 4; in test [1] (setting [5]), 2.01 to 4; in test [1] (setting [6]) it was 2.01 to 4; in test [1] (setting [7]), > 4; in test [1] (setting [8]), 2.01 to 4. For the same compound, the fold induction at 10 µM in test [2] (setting [9]) was > 1.6; in test [2] (setting [10]), 1.2 to 1.4; in test [2] (setting [11]), > 1.6; in test [2] (setting [12]), 1.4 to 1.6; with primary human NK cells (setting [15]) it was 1.01 to 2; in the test with primary human NK cells (setting [16]) it was < 1. Also, the fold induction at 0.625 µM in the test on primary human NK cells (setting [13]) and in the test with primary human NK cells (setting [14]) was < 1 in each case. The fold induction at 2.5 µM with primary human NK cells (setting [13]) and in the test on primary human NK cells (setting [14]) was < 1 each time.
In the case of `C[C@H](Cc1nncn1C)c1cccc(NC(=O)c2ccnc(C(F)(F)F)n2)c1` [Compound 187, (R)-N-(3-(1-(4-methyl-4H-1,2,4-triazol-3-yl)propan-2-yl)phenyl)-2-(trifluoromethyl)pyrimidine-4-carboxamide], the fold induction at 1 µM with primary human NK cells (setting [17]) was 1.01 to 2; with primary human NK cells (setting [18]) it was 1.01 to 2; in the test on primary human NK cells (setting [19]) it was < 1; in the test with primary human NK cells (setting [23]), 2.01 to 5; with primary human NK cells (setting [24]) it was 1.01 to 2; with primary human NK cells (setting [25]), 2.01 to 5. The fold induction at 10 µM was 2.01 to 5 in the test with primary human NK cells (setting [20]); 2.01 to 5 in the test with primary human NK cells (setting [21]); 2.01 to 5 in the test on primary human NK cells (setting [22]); > 5 in the test on primary human NK cells (setting [26]); 2.01 to 5 in the test with primary human NK cells (setting [27]); > 5 in the test on primary human NK cells (setting [28]).
Consider `C[C@H](Cc1nncn1C)c1cccc(NC(=O)c2cccc(CCO)n2)c1` [Compound 202, 6-(2-hydroxyethyl)-N-[3-[(2R)-1-(4-methyl-4H-1,2,4-triazol-3-yl)propan-2-yl]phenyl]pyridine-2-carboxamide], for which the fold induction at 1.11 µM in test [1] (setting [3]) is ≤ 1.5; in test [1] (setting [4]), < 2; in test [1] (setting [5]), ≤ 1.5; in test [1] (setting [6]) it was ≤ 1.5; in test [1] (setting [7]), < 2; in test [1] (setting [8]), ≤ 1.5. Further, the fold induction at 1.11 µM in test [2] (setting [9]), in test [2] (setting [10]), in test [2] (setting [11]) and in test [2] (setting [12]) was ≤ 1.2 in each case. Moreover, the fold induction at 10 µM is 1.51 to 2 in test [1] (setting [3]); > 4 in test [1] (setting [4]); 1.51 to 2 in test [1] (setting [5]); 1.51 to 2 in test [1] (setting [6]); < 2 in test [1] (setting [7]); ≤ 1.5 in test [1] (setting [8]). Also, the fold induction at 10 µM in test [2] (setting [9]) was 1.2 to 1.4; in test [2] (setting [10]), ≤ 1.2; in test [2] (setting [11]) it was 1.2 to 1.4; in test [2] (setting [12]), ≤ 1.2; in the test with primary human NK cells (setting [15]) it was 2.01 to 5; with primary human NK cells (setting [16]), 1.01 to 2. Also, the fold induction at 0.625 µM in the test on primary human NK cells (setting [13]) is 1.01 to 2; with primary human NK cells (setting [14]), < 1. For the same compound, the fold induction at 2.5 µM in the test on primary human NK cells (setting [13]) and in the test with primary human NK cells (setting [14]) was 1.01 to 2 throughout.
On to `C[C@H](Cc1nncn1C)c1cccc(N2Cc3c(ccnc3C3CC3)C2=O)c1` [Compound 257, 4-cyclopropyl-2-[3-[(1R)-1-methyl-2-(4-methyl-1,2,4-triazol-3-yl)ethyl]phenyl]-3H-pyrrolo[3,4-c]pyridin-1-one], for which the fold induction at 1.11 µM in test [1] (setting [3]) is 2.01 to 4; in test [1] (setting [4]) it was < 2; in test [1] (setting [5]) it was 1.51 to 2; in test [1] (setting [6]), 1.51 to 2; in test [1] (setting [7]), < 2; in test [1] (setting [8]) it was ≤ 1.5. Moreover, the fold induction at 1.11 µM in test [2] (setting [9]), in test [2] (setting [10]), in test [2] (setting [11]) and in test [2] (setting [12]) was ≤ 1.2 throughout. The fold induction at 10 µM in test [1] (setting [3]) was > 4; in test [1] (setting [4]), 2.01 to 3; in test [1] (setting [5]), 2.01 to 4; in test [1] (setting [6]) it was 2.01 to 4; in test [1] (setting [7]), 2.01 to 3; in test [1] (setting [8]) it was ≤ 1.5. The fold induction at 10 µM was 1.4 to 1.6 in test [2] (setting [9]); 1.2 to 1.4 in test [2] (setting [10]); 1.2 to 1.4 in test [2] (setting [11]); 1.2 to 1.4 in test [2] (setting [12]); 2.01 to 5 in the test with primary human NK cells (setting [15]); 2.01 to 5 in the test on primary human NK cells (setting [16]). Further, the fold induction at 0.625 µM with primary human NK cells (setting [13]) and in the test with primary human NK cells (setting [14]) was 1.01 to 2 throughout. In addition, the fold induction at 2.5 µM in the test with primary human NK cells (setting [13]) lay within 2.01 to 5; with primary human NK cells (setting [14]), 1.01 to 2.
Turning to `Cn1cnnc1C(F)(F)[C@](C)(F)c1cccc(N2Cc3c(cccc3C(F)(F)F)C2=O)c1` [Compound 296a, (R)-2-(3-(1,1,2-trifluoro-1-(4-methyl-4H-1,2,4-triazol-3-yl)propan-2-yl)phenyl)-4-(trifluoromethyl)isoindolin-1-one], the fold induction at 1 µM in the test on primary human NK cells (setting [17]) was 1.01 to 2; in the test with primary human NK cells (setting [18]) it was < 1; with primary human NK cells (setting [19]) it was < 1; with primary human NK cells (setting [23]) it was < 1; in the test with primary human NK cells (setting [24]), < 1; in the test with primary human NK cells (setting [25]), < 1. The fold induction at 10 µM is 2.01 to 5 with primary human NK cells (setting [20]); < 1 with primary human NK cells (setting [21]); 1.01 to 2 in the test with primary human NK cells (setting [22]); 1.01 to 2 with primary human NK cells (setting [26]); < 1 in the test on primary human NK cells (setting [27]); < 1 with primary human NK cells (setting [28]).
With `C[C@H](Cc1nncn1C)c1ccnc(NC(=O)c2cccc(C(F)(F)F)n2)c1` [Compound 302, (R)-N-(4-(1-(4-methyl-4H-1,2,4-triazol-3-yl)propan-2-yl)pyridin-2-yl)-6-(trifluoromethyl)picolinamide], the fold induction at 0.625 µM in the test with primary human NK cells (setting [13]) is < 1; with primary human NK cells (setting [14]), 1.01 to 2. Besides, the fold induction at 2.5 µM in the test on primary human NK cells (setting [13]) and in the test with primary human NK cells (setting [14]) was 1.01 to 2 throughout. Besides, the figures for the fold induction at 10 µM with primary human NK cells (setting [15]) and in the test with primary human NK cells (setting [16]) were 2.01 to 5 and 1.01 to 2, respectively.
